Experimental data published in US20060069132A1, “Azolecarboxamide herbicides” (priority 2004, published 2006).

Assays:
Assay in all cases: Test E pre-/postemergence herbicide test
[1] = system: pitted morningglory; assay type: in vivo, Ipomoea lacunosa
Excerpt: (§1) Seeds of plant species selected from bipinnate beggarticks (Bidens bipinnata L.), hairy beggarticks (Bidens radiata Thuill.), bermudagrass (Cynodon dactylon (L.) Pers.), Surinam grass (Urochloa decumbens (Staph) R. D. Webster, previously named Brachiaria decumbens Stapf), large crabgrass (Digitaria sanguinalis (L.) Scop.), green foxtail (Setaria viridis (L.) P. Beauv.), goosegrass (Eleusine indica (L.) Gaertn.), johnsongrass (Sorghum halepense (L.) Pers.), kochia (Kochia scoparia (L.) Schrad.), pitted morningglory (Ipomoea lacunosa L.), purple nutsedge (Cyperus rotundus L.), common ragweed (Ambrosia elatior L.), mustard (Brassica nigra (L.) W. D. J. Koch), guineagrass (Panicum maximum Jacq.), dallisgrass (Paspalum dilatatum Poir.), barnyardgrass (Echinochloa crus-galli (L). P. Beauv.), southern sandbur (Cenchrus echinatus L.), common sowthistle (Sonchus oleraceous L.), prickly sida (Sida spinosa L.), Italian ryegrass (Lolium multiflorum Lam.), common purslane (Portulaca oleracea L.), broadleaf signalgrass (Brachiaria platyphylla (Griseb.) Nash), common groundsel (Senecio vulgaris L.), common chickweed (Stellaria media (L.) Vill/Cyr.), tropical spiderwort (Commelina benghalensis L.), annual bluegrass (Poa annua L.), downy bromegrass (Bromus tectorum L.), itchgrass (Rottboellia cochinchinensis (L.) L.f.), quackgrass (Elytrigia repens (L.) Nevski), Canada horseweed (Erigeron Canadensis L.), field bindweed (Convolvulus arvensis L.), spotted spurge (Euphorbia maculata L.), common mallow (Malva sylvestris (=s silvestris) L.), and Russian thistle (Salsola kali L. ssp. Ruthenica (Iljin) Soo) were planted and treated preemergence with test chemicals formulated in a non-phytotoxic solvent mixture which included a surfactant.
(§2) At the same time, plants selected from these weed species were treated with postemergence applications of some of the test chemicals formulated in the same manner. Plants ranged in height from 2 to 18 cm (1- to 4-leaf stage) for postemergence treatments. Treated plants and controls were maintained in a greenhouse for 12 to 14 days, after which time all species were compared to controls and visually evaluated. Plant response ratings, summarized in Table E, are based on a scale of 0 to 100 where 0 is no effect and 100 is complete control. A dash (-) response means no test result.

[2] = system: dallisgrass; assay type: in vivo, Paspalum dilatatum
Excerpt: as §1, §2

[3] = system: common mallow; assay type: in vivo, Malva sylvestris
Excerpt: as §1, §2

[4] = system: goosegrass; assay type: in vivo, Eleusine indica
Excerpt: as §1, §2

[5] = system: large crabgrass; assay type: in vivo, Digitaria sanguinalis
Excerpt: as §1, §2

[6] = system: annual bluegrass; assay type: in vivo, Poa annua
Excerpt: as §1, §2

[7] = system: itchgrass; assay type: in vivo, Rottboellia cochinchinensis
Excerpt: as §1, §2

[8] = system: downy bromegrass; assay type: in vivo, Bromus tectorum
Excerpt: as §1, §2

[9] = system: prickly sida; assay type: in vivo, Sida spinosa; settings: Preemergence, scale 0 (no effect) to 100 (complete control)
Excerpt: as §1, §2

[10] = Postemergence, 250 g ai/ha, scale 0 to 100
[11] = Preemergence, 62 g ai/ha, scale 0 to 100
[12] = Preemergence, 125 g ai/ha, scale 0 (no effect) to 100 (complete control)
[13] = Preemergence, 250 g ai/ha, scale 0 (no effect) to 100 (complete control)
[14] = Preemergence, 500 g ai/ha, scale 0 (no effect) to 100 (complete control)
[15] = postemergence, 125 g ai/ha, scale 0 to 100
[16] = postemergence, 62 g ai/ha, scale 0 to 100
[17] = Postemergence, 500 g ai/ha, scale 0 to 100
[18] = Preemergence, 125 g ai/ha, scale 0 to 100
[19] = Preemergence, 375 g ai/ha, scale 0 (no effect) to 100 (complete control)

SMILES: CCNC(=O)c1ccc(F)c(NC(=O)c2cc(C(C)(C)C)nn2CC)c1 [Compound 2, 3-(1,1-dimethylethyl)-1-ethyl-N-[5-[(ethylamino)carbonyl]-2-fluorophenyl]-1H-pyrazole-5-carboxamide]
- Plant response rating, Morningglory [1, 10]: 90
- Plant response rating, Morningglory [1, 11]: 30
- Plant response rating, Morningglory [1, 12]: 50
- Plant response rating, Morningglory [1, 13]: 60
- Plant response rating, Morningglory [1, 14]: 80
- Plant response rating, Morningglory [1, 15]: 60
- Plant response rating, Dallisgrass [2, 10]: 90
- Plant response rating, Dallisgrass [2, 11]: 60
- Plant response rating, Dallisgrass [2, 12]: 90
- Plant response rating, Dallisgrass [2, 13]: 95
- Plant response rating, Dallisgrass [2, 14]: 95
- Plant response rating, Dallisgrass [2, 15]: 80
- Plant response rating, Dallisgrass [2, 16]: 75
- Plant response rating, Mallow [3, 10]: 80
- Plant response rating, Mallow [3, 11]: 30
- Plant response rating, Mallow [3, 13]: 50
- Plant response rating, Mallow [3, 14]: 80
- Plant response rating, Mallow [3, 15]: 75
- Plant response rating, Mallow [3, 16]: 50
- Plant response rating, Goosegrass [4, 10]: 98
- Plant response rating, Goosegrass [4, 11]: 80
- Plant response rating, Goosegrass [4, 12]: 90
- Plant response rating, Goosegrass [4, 13]: 95
- Plant response rating, Goosegrass [4, 14]: 95
- Plant response rating, Goosegrass [4, 15]: 95
- Plant response rating, Goosegrass [4, 16]: 95
- Plant response rating, Crabgrass, Large [5, 10]: 98
- Plant response rating, Crabgrass, Large [5, 11]: 70
- Plant response rating, Crabgrass, Large [5, 12]: 80
- Plant response rating, Crabgrass, Large [5, 13]: 100
- Plant response rating, Crabgrass, Large [5, 14]: 100
- Plant response rating, Crabgrass, Large [5, 15]: 95
- Plant response rating, Crabgrass, Large [5, 16]: 90
- Plant response rating, Bluegrass [6, 10]: 100
- Plant response rating, Bluegrass [6, 11]: 95
- Plant response rating, Bluegrass [6, 12]: 100
- Plant response rating, Bluegrass [6, 13]: 100
- Plant response rating, Bluegrass [6, 14]: 100
- Plant response rating, Bluegrass [6, 15]: 98
- Plant response rating, Bluegrass [6, 16]: 90
- Plant response rating, Itchgrass [7, 10]: 90
- Plant response rating, Itchgrass [7, 11]: 60
- Plant response rating, Itchgrass [7, 12]: 70
- Plant response rating, Itchgrass [7, 13]: 90
- Plant response rating, Itchgrass [7, 14]: 95
- Plant response rating, Itchgrass [7, 15]: 90
- Plant response rating, Itchgrass [7, 16]: 70
- Plant response rating, Bromegrass, Downy [8, 10]: 98
- Plant response rating, Bromegrass, Downy [8, 11]: 50
- Plant response rating, Bromegrass, Downy [8, 12]: 90
- Plant response rating, Bromegrass, Downy [8, 13]: 90
- Plant response rating, Bromegrass, Downy [8, 14]: 90
- Plant response rating, Bromegrass, Downy [8, 15]: 75
- Plant response rating, Bromegrass, Downy [8, 16]: 65

SMILES: CCn1nc(C(C)(C)C)cc1C(=O)Nc1cccc(C(N)=O)n1 [Compound 162, 6-[[[3-(1,1-dimethylethyl)-1-ethyl-1H-pyrazol-5-yl]carbonyl]amino]-2-pyridinecarboxamide]
- Plant response rating, Morningglory [1, 17]: 90
- Plant response rating, Morningglory [1, 10]: 80
- Plant response rating, Morningglory [1, 11]: 30
- Plant response rating, Morningglory [1, 18]: 60
- Plant response rating, Morningglory [1, 13]: 85
- Plant response rating, Morningglory [1, 14]: 100
- Plant response rating, Morningglory [1, 15]: 70
- Plant response rating, Morningglory [1, 16]: 30
- Plant response rating, Dallisgrass [2, 17]: 85
- Plant response rating, Dallisgrass [2, 10]: 70
- Plant response rating, Dallisgrass [2, 11]: 70
- Plant response rating, Dallisgrass [2, 18]: 95
- Plant response rating, Dallisgrass [2, 13]: 95
- Plant response rating, Dallisgrass [2, 14]: 95
- Plant response rating, Dallisgrass [2, 15]: 40
- Plant response rating, Dallisgrass [2, 16]: 20
- Plant response rating, Mallow [3, 17]: 100
- Plant response rating, Mallow [3, 10]: 80
- Plant response rating, Mallow [3, 11]: 50
- Plant response rating, Mallow [3, 18]: 70
- Plant response rating, Mallow [3, 13]: 100
- Plant response rating, Mallow [3, 14]: 100
- Plant response rating, Mallow [3, 15]: 60
- Plant response rating, Mallow [3, 16]: 40
- Plant response rating, Goosegrass [4, 17]: 98
- Plant response rating, Goosegrass [4, 10]: 95
- Plant response rating, Goosegrass [4, 11]: 60
- Plant response rating, Goosegrass [4, 18]: 90
- Plant response rating, Goosegrass [4, 13]: 95
- Plant response rating, Goosegrass [4, 14]: 95
- Plant response rating, Goosegrass [4, 15]: 80
- Plant response rating, Goosegrass [4, 16]: 50
- Plant response rating, Crabgrass, Large [5, 17]: 95
- Plant response rating, Crabgrass, Large [5, 10]: 90
- Plant response rating, Crabgrass, Large [5, 11]: 50
- Plant response rating, Crabgrass, Large [5, 18]: 90
- Plant response rating, Crabgrass, Large [5, 13]: 95
- Plant response rating, Crabgrass, Large [5, 14]: 100
- Plant response rating, Crabgrass, Large [5, 15]: 50
- Plant response rating, Crabgrass, Large [5, 16]: 30
- Plant response rating, Bluegrass [6, 17]: 98
- Plant response rating, Bluegrass [6, 10]: 98
- Plant response rating, Bluegrass [6, 11]: 100
- Plant response rating, Bluegrass [6, 18]: 100
- Plant response rating, Bluegrass [6, 13]: 100
- Plant response rating, Bluegrass [6, 14]: 100
- Plant response rating, Bluegrass [6, 15]: 95
- Plant response rating, Bluegrass [6, 16]: 90
- Plant response rating, Itchgrass [7, 17]: 95
- Plant response rating, Itchgrass [7, 10]: 95
- Plant response rating, Itchgrass [7, 11]: 40
- Plant response rating, Itchgrass [7, 18]: 95
- Plant response rating, Itchgrass [7, 13]: 95
- Plant response rating, Itchgrass [7, 14]: 100
- Plant response rating, Itchgrass [7, 15]: 85
- Plant response rating, Itchgrass [7, 16]: 75
- Plant response rating, Bromegrass, Downy [8, 17]: 100
- Plant response rating, Bromegrass, Downy [8, 10]: 98
- Plant response rating, Bromegrass, Downy [8, 11]: 40
- Plant response rating, Bromegrass, Downy [8, 18]: 80
- Plant response rating, Bromegrass, Downy [8, 13]: 90
- Plant response rating, Bromegrass, Downy [8, 14]: 100
- Plant response rating, Bromegrass, Downy [8, 15]: 95
- Plant response rating, Bromegrass, Downy [8, 16]: 50

SMILES: CCc1nn(C(C)(C)C)cc1C(=O)Nc1cc(C(=O)N(C)C)ccn1 [Compound 293]
- Plant response rating, Morningglory [1, 18]: 10
- Plant response rating, Morningglory [1, 13]: 40
- Plant response rating, Morningglory [1, 19]: 50
- Plant response rating, Morningglory [1, 14]: 90
- Plant response rating, Dallisgrass [2, 18]: 60
- Plant response rating, Dallisgrass [2, 13]: 95
- Plant response rating, Dallisgrass [2, 19]: 95
- Plant response rating, Dallisgrass [2, 14]: 100
- Plant response rating, Mallow [3, 18]: 40
- Plant response rating, Mallow [3, 13]: 50
- Plant response rating, Mallow [3, 19]: 80
- Plant response rating, Mallow [3, 14]: 85
- Plant response rating, Goosegrass [4, 18]: 90
- Plant response rating, Goosegrass [4, 13]: 90
- Plant response rating, Goosegrass [4, 19]: 95
- Plant response rating, Goosegrass [4, 14]: 100
- Plant response rating, Crabgrass, Large [5, 18]: 95
- Plant response rating, Crabgrass, Large [5, 13]: 95
- Plant response rating, Crabgrass, Large [5, 19]: 100
- Plant response rating, Crabgrass, Large [5, 14]: 100
- Plant response rating, Bluegrass [6, 18]: 95
- Plant response rating, Bluegrass [6, 13]: 95
- Plant response rating, Bluegrass [6, 19]: 95
- Plant response rating, Bluegrass [6, 14]: 100
- Plant response rating, Itchgrass [7, 18]: 10
- Plant response rating, Itchgrass [7, 13]: 90
- Plant response rating, Itchgrass [7, 19]: 100
- Plant response rating, Itchgrass [7, 14]: 100
- Plant response rating, Bromegrass, Downy [8, 13]: 80
- Plant response rating, Bromegrass, Downy [8, 14]: 80
- Plant response rating, Prickly Sida ([9]; 250 g ai/ha): 80
- Plant response rating, Prickly Sida ([9]; 375 g ai/ha): 100
- Plant response rating, Prickly Sida ([9]; 500 g ai/ha): 100
